Data from patent US4820694A, “Modifications of 3-O-demethylmycinose in macrocin and lactenocin” (priority 1986, dated 1989).
In brackets after ≈: the same amount, converted by molar mass. Like-named read-outs stand apart in the source and are kept apart here.

What was measured:
[1] = system: Haemophilus influenzae 76; experiment: standard agar-dilution MIC assay; type: cell-based; conditions: Haemophilus influenzae, 76
Protocol: (§1) The MIC's in Table III were determined by standard agar-dilution assays. The MIC's in Table IV were obtained using conventional brothdilution microtiter tests.

[2] = system: Haemophilus influenzae C.L.; experiment: standard agar-dilution MIC assay; type: cell-based; conditions: Haemophilus influenzae
Protocol: as §1

[3] = system: Streptococcus Group D 9960; experiment: standard agar-dilution MIC assay; type: cell-based; conditions: GROUPD9960, read-out: MIC
Protocol: as §1

[4] = system: Staphylococcus aureus X1.1; experiment: standard agar-dilution MIC assay; type: cell-based; conditions: Staphylococcus aureus, X1.1
Protocol: as §1

[5] = system: Staphylococcus aureus X400; experiment: standard agar-dilution MIC assay; type: cell-based; conditions: Staphylococcus aureus, X400
Protocol: as §1

[6] = system: Pseudomonas aeruginosa X239; experiment: standard agar-dilution MIC assay; type: cell-based; conditions: Pseudomonas aeruginosa, X239; agar-dilution; read-out: MIC
Protocol: as §1

Escherichia coli EC14 = experiment: standard agar-dilution MIC assay; type: cell-based; conditions: agar-dilution, read-out: MIC
Protocol: as §1

[7] = system: Streptococcus pyogenes C203; experiment: standard agar-dilution MIC assay; type: cell-based; conditions: Streptococcus pyogenes, C203
Protocol: as §1

[8] = system: Staphylococcus epidermidis EPI1; experiment: standard agar-dilution MIC assay; type: cell-based; conditions: Staphylococcus epidermidis, EPI1
Protocol: as §1

[9] = system: Streptococcus Group D X66; experiment: standard agar-dilution MIC assay; type: cell-based; conditions: read-out: MIC
Protocol: as §1

[10] = system: Staphylococcus aureus V41; experiment: standard agar-dilution MIC assay; type: cell-based; conditions: Staphylococcus aureus, V41
Protocol: as §1

[11] = system: Klebsiella pneumoniae X68; experiment: standard agar-dilution MIC assay; type: cell-based; conditions: Klebsiella pneumoniae, X68; agar-dilution; read-out: MIC
Protocol: as §1

[12] = system: Streptococcus pneumoniae Park I; experiment: microbe, parasite or virus in culture; type: cell-based; conditions: Streptococcus pneumoniae
Protocol: as §1

[13] = system: Staphylococcus aureus S13E; experiment: microbe, parasite or virus in culture; type: cell-based; conditions: Staphylococcus aureus, S13E
Protocol: as §1

[14] = system: Pasteurella multocida 68C; experiment: broth-dilution microtiter MIC test; type: cell-based; conditions: Pasteurella multocida, 68C
Protocol: as §1

Streptococcus sp. 19F = experiment: broth-dilution microtiter MIC test; type: cell-based; conditions: Streptococcus, SP.19F
Protocol: as §1

[15] = system: Pasteurella hemolytica 41D; experiment: broth-dilution microtiter MIC test; type: cell-based; conditions: Pasteurella, 41D
Protocol: as §1

Mycoplasma synoviae 40A = experiment: broth-dilution microtiter MIC test; type: cell-based; conditions: Mycoplasmopsis synoviae, 40A
Protocol: as §1

[16] = system: Staphylococcus aureus 19C; experiment: broth-dilution microtiter MIC test; type: cell-based; conditions: Staphylococcus aureus, 19C
Protocol: as §1

[17] = system: Bordetella bronchiseptica; experiment: broth-dilution microtiter MIC test; type: cell-based; conditions: Bordetella bronchiseptica; broth-dilution microtiter; read-out: MIC
Protocol: as §1

[18] = system: Mycoplasma gallisepticum 29C; experiment: broth-dilution microtiter MIC test; type: cell-based; conditions: Mycoplasmoides gallisepticum, 29C
Protocol: as §1

[19] = system: Mycoplasma gallisepticum 15E; experiment: broth-dilution microtiter MIC test; type: cell-based; conditions: Mycoplasmoides gallisepticum, 15E
Protocol: as §1

[20] = system: Pasteurella hemolytica 22C; experiment: broth-dilution microtiter MIC test; type: cell-based; conditions: Pasteurella, 22C
Protocol: as §1

[21] = system: Pasteurella hemolytica 23C; experiment: broth-dilution microtiter MIC test; type: cell-based; conditions: Pasteurella, 23C
Protocol: as §1

[22] = system: Mycoplasma gallisepticum 36H; experiment: broth-dilution microtiter MIC test; type: cell-based; conditions: Mycoplasmoides gallisepticum, 36H
Protocol: as §1

[23] = system: Pasteurella multocida 17E; experiment: broth-dilution microtiter MIC test; type: cell-based; conditions: Pasteurella multocida, 17E
Protocol: as §1

Mycoplasma hyorhinis 29E = experiment: broth-dilution microtiter MIC test; type: cell-based; conditions: Mycoplasma, 29E
Protocol: as §1

[24] = system: Pasteurella multocida 40G; experiment: broth-dilution microtiter MIC test; type: cell-based; conditions: Pasteurella multocida, 40G
Protocol: as §1

[25] = system: Pasteurella multocida 60A; experiment: broth-dilution microtiter MIC test; type: cell-based; conditions: Pasteurella multocida, 60A
Protocol: as §1

[26] = system: Pasteurella multocida 22A; experiment: broth-dilution microtiter MIC test; type: cell-based; conditions: Pasteurella multocida, 22A
Protocol: as §1

[27] = system: Streptococcus pyogenes C203; experiment: protection of mice experimentally infected with S. pyogenes C203; type: in vivo; conditions: mice, mg/kg × 2, doses given 1 and 4 hours postinfection, read-out: ED50
Protocol: The formula 1 compounds have shown in vivo antimicrobial activity against experimentally-induced infections in laboratory animals. When two doses of test compound were administered to mice experimentally infected with S. pyrogenes C203, the activity observed was measured as an ED50 value [effective dose in mg/kg to protect 50% of the test animals: see Warren Wick, et al., J. Bacteriol. 81, 233-235 (1961)].
^a mg/kg × 2; doses given 1 and 4 hours postinfection

[28] = broth-dilution microtiter, read-out: MIC

Structure (SMILES)	MIC [1]	MIC [3]	MIC [4]	MIC [5]	MIC [6]	MIC (Escherichia coli EC14)	MIC [7]	MIC [8]	MIC [9]	MIC [10]	MIC [11]	MIC [13]	MIC [14]	MIC (Streptococcus sp. 19F)	MIC (Mycoplasma synoviae 40A)	MIC [16]	MIC [17]	MIC [18]	MIC [19]	MIC [22]	also measured
CCC1OC(=O)CC(O)C(C)C(OC2OC(C)C(O)C(N(C)C)C2O)C(CC=O)CC(C)C(=O)C=CC(C)=CC1COC1OC(C)C(OC(C)=O)C(OC(=O)COc2ccccc2)C1OC (centres unmarked) [Compound 38, 4"-O-Acetyl-3"-O-phenoxyacetyl-lactenocin]	8 µg/mL (≈ 8.56 µM)	2 µg/mL (≈ 2.14 µM)	1 µg/mL (≈ 1.07 µM)	2 µg/mL (≈ 2.14 µM)	> 128 µg/mL	> 128 µg/mL	0.5 µg/mL (≈ 0.535 µM)	1 µg/mL (≈ 1.07 µM)	2 µg/mL (≈ 2.14 µM)	1 µg/mL (≈ 1.07 µM)	> 128 µg/mL	1 µg/mL (≈ 1.07 µM)	12.5 µg/mL (≈ 13.4 µM)	0.78 µg/mL (≈ 0.835 µM)	0.78 µg/mL (≈ 0.835 µM)	3.12 µg/mL (≈ 3.34 µM)	> 50 µg/mL	0.39 µg/mL (≈ 0.418 µM)	25 µg/mL (≈ 26.8 µM)	12.5 µg/mL (≈ 13.4 µM)	MIC [2]: 16 µg/mL (≈ 17.1 µM); MIC [12]: 0.25 µg/mL (≈ 0.268 µM); MIC [15]: 50 µg/mL (≈ 53.5 µM); MIC [20]: 25 µg/mL (≈ 26.8 µM); MIC [21]: 25 µg/mL (≈ 26.8 µM); MIC [23]: 25 µg/mL (≈ 26.8 µM); MIC (Mycoplasma hyorhinis 29E): 12.5 µg/mL (≈ 13.4 µM); MIC [24]: 25 µg/mL (≈ 26.8 µM); MIC [25]: 12.5 µg/mL (≈ 13.4 µM); MIC [26]: 25 µg/mL (≈ 26.8 µM)
CCC1OC(=O)CC(O)C(C)C(OC2OC(C)C(O)C(N(C)C)C2O)C(CC=O)CC(C)C(=O)C=CC(C)=CC1COC1OC(C)C(OC(=O)CC(C)C)C(OC(=O)CC(C)C)C1OC (centres unmarked) [Compound 28, 3",4"-Di-O-isovaleryl-lactenocin]	64 µg/mL (≈ 69.1 µM)	4 µg/mL (≈ 4.32 µM)	2 µg/mL (≈ 2.16 µM)	4 µg/mL (≈ 4.32 µM)	> 128 µg/mL	> 128 µg/mL	2 µg/mL (≈ 2.16 µM)	2 µg/mL (≈ 2.16 µM)	4 µg/mL (≈ 4.32 µM)	2 µg/mL (≈ 2.16 µM)	> 128 µg/mL	2 µg/mL (≈ 2.16 µM)	50 µg/mL (≈ 54 µM)	3.12 µg/mL (≈ 3.37 µM)	12.5 µg/mL (≈ 13.5 µM)	6.25 µg/mL (≈ 6.75 µM)	> 50 µg/mL	1.56 µg/mL (≈ 1.68 µM)	25 µg/mL (≈ 27 µM)	50 µg/mL (≈ 54 µM)	MIC ([2]; agar-dilution, Ampicillin-sensitive strain, read-out: MIC): 128 µg/mL (≈ 138 µM); MIC [12]: 0.5 µg/mL (≈ 0.54 µM); MIC [15, 28]: > 50 µg/mL; MIC [20, 28]: > 50 µg/mL; MIC [21, 28]: > 50 µg/mL; MIC ([23]; broth-dilution microtiter, Bovine isolate, read-out: MIC): > 50 µg/mL; MIC (Mycoplasma hyorhinis 29E): 6.25 µg/mL (≈ 6.75 µM); MIC [24]: 50 µg/mL (≈ 54 µM); MIC ([25]; broth-dilution microtiter, Avian isolate, read-out: MIC): > 50 µg/mL; MIC [26, 28]: > 50 µg/mL; ED50 ([27]; C203, Oral): 21.4 mg/kg; ED50 ([27]; C203, sc, Subcutaneous): > 6.25 mg/kg
CCC1OC(=O)CC(O)C(C)C(OC2OC(C)C(O)C(N(C)C)C2OC(C)=O)C(CC=O)CC(C)C(=O)C=CC(C)=CC1COC1OC(C)C(OC(C)=O)C(OC(=O)COc2ccccc2)C1OC (centres unmarked) [Compound 37, 2',4"-Di-O-acetyl-3"-O-phenoxyacetyllactenocin]	4 µg/mL (≈ 4.1 µM)	2 µg/mL (≈ 2.05 µM)	1 µg/mL (≈ 1.02 µM)	2 µg/mL (≈ 2.05 µM)	> 128 µg/mL	> 128 µg/mL	0.5 µg/mL (≈ 0.512 µM)	1 µg/mL (≈ 1.02 µM)	1 µg/mL (≈ 1.02 µM)	1 µg/mL (≈ 1.02 µM)	> 128 µg/mL	1 µg/mL (≈ 1.02 µM)	12.5 µg/mL (≈ 12.8 µM)	0.78 µg/mL (≈ 0.799 µM)	0.78 µg/mL (≈ 0.799 µM)	1.56 µg/mL (≈ 1.6 µM)	> 50 µg/mL	0.195 µg/mL (≈ 0.2 µM)	6.25 µg/mL (≈ 6.4 µM)	12.5 µg/mL (≈ 12.8 µM)	MIC [2]: 16 µg/mL (≈ 16.4 µM); MIC ([12]; agar-dilution, read-out: MIC): 0.12 µg/mL (≈ 0.123 µM); MIC [15]: 25 µg/mL (≈ 25.6 µM); MIC [20]: 25 µg/mL (≈ 25.6 µM); MIC [21]: 25 µg/mL (≈ 25.6 µM); MIC [23]: 25 µg/mL (≈ 25.6 µM); MIC (Mycoplasma hyorhinis 29E): 6.25 µg/mL (≈ 6.4 µM); MIC [24]: 25 µg/mL (≈ 25.6 µM); MIC [25]: 25 µg/mL (≈ 25.6 µM); MIC [26]: 25 µg/mL (≈ 25.6 µM)
